Earlier results on 1 substance are cited in patent US9662359B2, “Compositions and methods for treating depression” (Alexander Vuckovic, M.D., LLC, priority 2010, dated 2017).

For the series the following is noted: oral SAMe.

S-Adenosyl methionine [SAMe]: the half-life entry is listed as “about 100 minutes”.
